According to PubChem BioAssay (NCI):
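1) Cells in 96-well plates. 2) Compound, 48 h, 5 concentrations. 3) Linear interpolation between surrounding doses. 4) Unreached endpoint = highest concentration. The concentration for 50% growth inhibition is given as GI50. TGI: concentration producing complete growth inhibition.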

Tests used:
Assay in all cases: NCI tumour cell line growth inhibition, 48 h
[1] = tested on: SNB-19 CNS
[2] = tested on: LXFL 529 NSCLC
[3] = tested on: CCRF-CEM leukemia
[4] = tested on: DMS 114 small cell lung
[5] = tested on: CAKI-1 renal
[6] = tested on: HOP-18 NSCLC
[7] = tested on: KM20L2 colon
[8] = tested on: DLD-1 colon
[9] = tested on: DMS 273 small cell lung
[10] = tested on: M19-MEL melanoma
[11] = tested on: SNB-78 CNS

SMILES	TGI [1] [µM]	TGI [3] [µM]	TGI [5] [µM]	other results
COc1ccc(-c2nc3c(nc2-c2ccc(OC)cc2)N(C)S(=O)(=O)N=C3N)cc1	> 100	> 100	94.9	TGI [2]: > 100 µM; TGI [4]: 72.7 µM; TGI [6]: > 100 µM; TGI [7]: > 100 µM; TGI [8]: > 100 µM; TGI [9]: > 100 µM; TGI [10]: > 100 µM
Nc1[nH]c(=S)c2c(N)n[nH]c2c1C(=O)Nc1ccc(Cl)cc1	> 100		> 100	
Brc1ccc(-c2cc(-c3ccc4c(c3)OCO4)c(-c3cccs3)n2Cc2ccccc2)cc1	> 100	> 100	> 100	
CC[C@H]1C=CCC[C@@]2(C[C@@H]3CC[C@@H]4[C@H](C(=O)OCCCCCCCCCCCCCCCC(=O)N(CCCNC(C)=O)C[C@H](CCNC(C)=O)OC(C)=O)[C@]5(CCC[C@@H](C)O5)NC(=[N+]34)N2)O1	2.22	0.0469	1.86	
Cc1c(-c2ccc(O)c(O)c2)oc(=O)c2c(O)cccc12	36.1	> 100	36	
NC(=O)C1N=NSC1NC(=O)c1ccc([N+](=O)[O-])cc1 (stereo not given)	> 100	> 100	> 100	
COc1cc(Nc2nc3ccccc3nc2C(C)C)cc(OC)c1OC	> 100	> 100	> 100	
COc1ccc(/C=C(/c2ccccc2)c2c(C)cc(C)c(/C(=C\c3ccc(OC)cc3)c3ccccc3)c2N=Nc2cc(C)cc(C)c2)cc1	> 100	> 100	> 100	
C[N+](C)(C)C(C1=CCCC1=O)c1ccccc1 (stereo not given)	> 100	> 100	63.9	
O=S(=O)(O)c1ccccc1N=Nc1ccc(N=Nc2c(O)ccc3ccccc23)c(S(=O)(=O)O)c1	> 100	> 100	> 100	
CC(=O)OCCOCCN1CCN(c2c(O)c3c(c(O)c2Cl)C(=O)C=CC3=O)CC1	6.82		0.878	
CCc1c(C)c2ccc(OCC(=O)N=Nc3c(O)[nH]c4ccccc34)c(C)c2oc1=O		> 33.3	> 33.3	GI50 [3]: 1.34 µM; GI50 [5]: > 33.3 µM
Cc1cc(C)c2c(=O)cc(-c3ccc4ccccc4c3)[nH]c2n1	> 100	37.7	> 100	
CCCCc1c2c(nc3c1CC/C(=C\c1ccc([N+](=O)[O-])cc1)C3=O)CCCC2	3.67	6.68		TGI [2]: 2.68 µM; TGI [4]: 4.4 µM; TGI [11]: 4.38 µM; TGI [7]: 4.01 µM; TGI [8]: 3.42 µM; TGI [9]: 3.78 µM; TGI [10]: 4.59 µM
CC#CCCCC1(C)CCCNC1=S (stereo not given)	> 10	> 10		
CNc1nc2c(C)ccc3[nH]c(N(C)C)nc3c-2n1	65	> 100	> 100	
Cc1ccc(C)c(COCCOCn2c(=O)[nH]c(=O)c3cc(Br)ccc32)c1	> 100	> 100	> 100	
CC(=O)OC(=C(C#N)C#N)c1nccnc1C(C)=O	> 20	> 20	> 20	
COC(=O)C1=COc2c(n(C)c3ccccc23)-c2ccccc21	> 100	> 100	> 100	

SMILES	TGI [1] [µM]	TGI [3] [µM]	TGI [5] [µM]	other results
COc1cc(C(=O)OCCn2[nH]c(-c3ccc(Cl)cc3)nc2=S)cc(OC)c1OC	> 100	> 100	> 100	
NC(=O)CNC(=O)[C@@H]1C[C@@H](OCCC(=O)O)CN1C(=O)OCc1ccccc1	> 100	> 100		
CN(C)Cc1cc(C(=O)/C=C/c2ccc(F)cc2)cc(CN(C)C)c1O	> 100	78	67.3	
COC(=O)c1ccc(C)cc1CC1Cc2c(C)cccc2C1=O (stereo not given)	89.7	62.2	30.8	
CCOC(=O)c1cn2c(ccc3sc4ccccc4c(=O)c32)n1	> 100	> 100	> 100	
O=S(=O)(/N=C(\NO)Nc1ccc(Cl)cc1)C1CC=C(c2ccon2)S1 (stereo not given)	> 100	72.1	> 100	
NC(=O)SCC(=O)Nc1ccc2ncccc2c1	> 100	> 100	> 100	
COc1ccc(N(C(=O)NCCO)c2ccccc2)cc1	> 100	> 100	> 100	
CCOP(C)(=O)/C(Cc1ccc(OC)c(OC)c1)=N\O (stereo not given)	> 100	> 100	> 100	
Cc1[nH]c(=O)nc(N(CCO)/N=C/c2ccc(Cl)cc2)c1C(=O)Nc1ccc(Cl)cc1	> 100	> 100	> 100	
CCCCCCCCCCCCCCCCOc1ccc(/C=C/C2=[N+](CCCl)CCO2)cc1	> 100	> 100	> 100	
CCn1c(=O)c2c3cc(OC(C)=O)ccc3oc2c2ccc(OC(C)=O)cc21	> 100	> 100	> 100	
CC(=O)N(C(C)=O)n1nc2c(n1)C(=O)c1ccccc1C2=O	> 100	> 100	> 100	
S=C(c1c[nH]c2ccccc12)N1CCCCC1	> 100	> 100	> 100	
N#CCCN(CCC#N)c1ccc(C(N=Nc2ccc(Cl)cc2)=Nc2ccc(Cl)cc2)cc1	53.3	65.3	45.2	
Cc1ccc(S(=O)(=O)N2CCCSCCN(S(=O)(=O)c3ccc(C)cc3)CCCSCC2)cc1	> 100			
O=C1CCCC2=C1CC1=C(CCCC1=O)N2c1cccc([N+](=O)[O-])c1	> 100	> 100	> 100	
Cc1nc2ccccc2c(=O)n1/N=C/c1ccc(N(C)C)cc1	> 100	> 100	> 100	
CN=C(NC)N(C)c1nc(=[N+](C)C)ss1	> 100	> 100	98.3	TGI [2]: > 100 µM; TGI [11]: > 100 µM; TGI [9]: > 100 µM
